Experimental data reported in patent US20230293539A1, “MLL1-WDR5 PROTEIN-PROTEIN INTERACTION INHIBITOR COMPOUNDS AND USES THEREOF” (HUYABIO International, LLC, priority 2022, published 2023).
Where two headings read alike, the source gives them in different places.

Test: PK profile of HBI-2375 in plasma and brain in C57BL/6J mice
Assay type: in vivo
Conditions: for AUClast / AUC(0-t) / Tmax at 7 day / Cmax at 7 day / Tmax / Cmax / MRT last: C57BL/6J mice; for concentration at 24 h / Kp / AUC(0-t): C57BL/6J; for concentration at 24 h / Kp / AUC(0-t) / Tmax at 7 day / Cmax at 7 day / Tmax / Cmax / MRT last: mouse; for concentration at 24 h: read-out: Mean Brain Concentration, Cmin = 24 h; for AUClast Ratio, group 2 vs 1 / Cmax Ratio, group 2 vs 1: 80 vs 40 mg/kg PO; for AUClast ratios females/males / Cmax ratios females/males: all three dose groups; for AUClast Ratio, group 3 vs 2 / Cmax Ratio, group 3 vs 2: repeat PO vs PO 80 mg/kg
Method: EXAMPLE 4: PK profile of compound of Formula (IIIb) (HBI-2375, HYBI-84) in plasma and brain in C57BL/6J mice: This study was conducted in accordance with the Study Protocol and Pharmaron (Ningbo) TSP's Standard Operating Procedures (SOPs) following all regulatory protocols. This study was conducted under non-GLP environment.
Following single oral gavage administration of HBI-2375 at 40 mg/kg, 80 mg/kg, and 7-day repeat oral gavage administration at 80 mg/kg in C57BL/6J mice, concentrations of HBI-2375 in plasma and brain were determined by LC-MS/MS methods. […] The maximal concentrations of HBI-2375 in brain were all observed at 4 hr post-dose. […] The exposure of HBI-2375 in plasma and brain of females were closed to that of males, the ratios were 0.989-1.22 for plasma, and 1.10-1.34 for brain.

[1] = 7-day repeat PO 80 mg/kg, brain, female
[2] = 7-day repeat PO 80 mg/kg, brain, male
[3] = single PO 40 mg/kg, brain, female
[4] = single PO 40 mg/kg, brain, male
[5] = single PO 80 mg/kg, brain, female
[6] = single PO 80 mg/kg, brain, male
[7] = both sexes, single PO 40 mg/kg, brain, mean
[8] = both sexes, single PO 40 mg/kg, plasma, mean
[9] = both sexes, single PO 80 mg/kg, brain, mean
[10] = both sexes, single PO 80 mg/kg, plasma, mean
[11] = mice, 7-day consecutive dosing 80 mg/kg
[12] = mice, all dose groups, listed as HBI-2375
[13] = mice, repeat PO 80 mg/kg, brain
[14] = mice, repeat PO 80 mg/kg, plasma
[15] = mice, single PO 40 mg/kg, brain
[16] = mice, single PO 40 mg/kg, plasma
[17] = mice, single PO 80 mg/kg, brain
[18] = mice, single PO 80 mg/kg, plasma
[19] = 7-day repeat PO 80 mg/kg, plasma, female
[20] = 7-day repeat PO 80 mg/kg, plasma, male
[21] = single PO 40 mg/kg, plasma, female
[22] = single PO 40 mg/kg, plasma, male
[23] = single PO 80 mg/kg, plasma, female
[24] = single PO 80 mg/kg, plasma, male

## Cc1c(F)c(N)cc(C(=O)Nc2cc(-n3cc(C(=O)N4CCN(C)CC4)nn3)c(F)cc2N2C[C@@H](C)N(C)[C@@H](C)C2)c1Cl [HYBI-084, 5-amino-2-chloro-4-fluoro-N-(4-fluoro-5-(4-(4-methylpiperazine-1-carbonyl)-1H-1,2,3-triazol-1-yl)-2-((3S,5R)-3,4,5-trimethylpiperazin-1-yl)phenyl)-3-methylbenzamide]
[1]
  AUClast: 11446 ng·h/g
  Cmax at 7 day: 892 ng/g
  Tmax at 7 day: 4 h
[2]
  AUClast: 8555 ng·h/g
  Cmax at 7 day: 722 ng/g
  Tmax at 7 day: 4 h
7-day repeat PO 80 mg/kg, brain, mean
  AUClast: 10001 ng·h/g
[3]
  AUClast: 2179 ng·h/g
  Cmax: 192 ng/g
  MRT last: 8.25 h
  Tmax: 4 h
[4]
  AUClast: 1879 ng·h/g
  Cmax: 167 ng/g
  MRT last: 8.05 h
  Tmax: 4 h
Single PO 40 mg/kg, brain, mean
  AUClast: 2029 ng·h/g
[5]
  AUClast: 6129 ng·h/g
  Cmax: 556 ng/g
  MRT last: 8.01 h
  Tmax: 4 h
[6]
  AUClast: 5559 ng·h/g
  Cmax: 500 ng/g
  MRT last: 8.4 h
  Tmax: 4 h
Single PO 80 mg/kg, brain, mean
  AUClast: 5844 ng·h/g
brain, po, 80 mg/kg, Repeat PO Mouse at 80 mg/kg
  concentration at 24 h: 136 ng/g
brain, po, 80 mg/kg, Single PO Mouse at 80 mg/kg
  concentration at 24 h: 55 ng/g
Both sexes, brain, oral, 40 mg/kg, mice, single dosing 40 mg/kg, read-out: AUC exposure in brain as % of that in plasma
  Kp: 0.283 to 0.332
Both sexes, brain, oral, 80 mg/kg, mice, single dosing 80 mg/kg, read-out: AUC exposure in brain as % of that in plasma
  Kp: 0.361 to 0.388
Both sexes, brain, oral, mice, all dose groups, read-out: brain exposure as % of AUC in plasma
  Kp: 0.283 to 0.588
Both sexes, plasma, po, 40 mg/kg, single PO 40 mg/kg, mean
  AUC(0-t): 6600 ng·h/mL
Both sexes, plasma, po, 80 mg/kg, 7-day repeat PO 80 mg/kg, mean
  AUC(0-t): 17700 ng·h/mL
Both sexes, plasma, po, 80 mg/kg, single PO 80 mg/kg, mean
  AUC(0-t): 15600 ng·h/mL
Both sexes, 7-day repeat PO 80 mg/kg, brain
  Tmax at 7 day: 4 h
Both sexes, 7-day repeat PO 80 mg/kg, brain, mean
  Cmax at 7 day: 807 ng/g
Both sexes, 7-day repeat PO 80 mg/kg, plasma
  Tmax at 7 day: 1 h
Both sexes, 7-day repeat PO 80 mg/kg, plasma, mean
  Cmax at 7 day: 2530 ng/mL
Both sexes, single PO 40 mg/kg, brain
  Tmax: 4 h
[7]
  Cmax: 180 ng/g
  MRT last: 8.15 h
Both sexes, single PO 40 mg/kg, plasma
  Tmax: 0.5 h
[8]
  Cmax: 1140 ng/mL
  MRT last: 5.26 h
Both sexes, single PO 80 mg/kg, brain
  Tmax: 4 h
[9]
  Cmax: 528 ng/g
  MRT last: 8.21 h
Both sexes, single PO 80 mg/kg, plasma
  Tmax: 0.5 h
[10]
  Cmax: 3970 ng/mL
  MRT last: 5.16 h
female, brain, po, 40 mg/kg, mice, single PO 40 mg/kg, female, read-out: AUClast Ratio Brain/Plasma
  Kp: 0.332
female, brain, po, 80 mg/kg, mice, repeat PO 80 mg/kg, female, read-out: AUClast Ratio Brain/Plasma
  Kp: 0.588
female, brain, po, 80 mg/kg, mice, single PO 80 mg/kg, female, read-out: AUClast Ratio Brain/Plasma
  Kp: 0.388
female, plasma, po, 40 mg/kg, single PO 40 mg/kg
  AUC(0-t): 6560 ng·h/mL
female, plasma, po, 80 mg/kg, 7-day repeat PO 80 mg/kg
  AUC(0-t): 19500 ng·h/mL
female, plasma, po, 80 mg/kg, single PO 80 mg/kg
  AUC(0-t): 15800 ng·h/mL
male, brain, po, 40 mg/kg, mice, single PO 40 mg/kg, male, read-out: AUClast Ratio Brain/Plasma
  Kp: 0.283
male, brain, po, 80 mg/kg, mice, repeat PO 80 mg/kg, male, read-out: AUClast Ratio Brain/Plasma
  Kp: 0.536
male, brain, po, 80 mg/kg, mice, single PO 80 mg/kg, male, read-out: AUClast Ratio Brain/Plasma
  Kp: 0.361
male, plasma, po, 40 mg/kg, single PO 40 mg/kg
  AUC(0-t): 6640 ng·h/mL
male, plasma, po, 80 mg/kg, 7-day repeat PO 80 mg/kg
  AUC(0-t): 16000 ng·h/mL
male, plasma, po, 80 mg/kg, single PO 80 mg/kg
  AUC(0-t): 15400 ng·h/mL
[11]
  drug accumulation in brain: no obvious drug accumulation
  drug accumulation in plasma: no obvious drug accumulation
mice, 7-day repeat PO 80 mg/kg, brain, both sexes
  mean concentration at 24 hr post-dose as % of Cmax: 14.4-18.9%
mice, 7-day repeat PO 80 mg/kg, plasma, both sexes
  mean concentration at 24 hr post-dose as % of Cmax: 2.68-3.94%
mice, brain, female
  AUClast Ratio, group 2 vs 1: 2.81
  Cmax Ratio, group 2 vs 1: 2.89
  AUClast Ratio, group 3 vs 2: 1.87
  Cmax Ratio, group 3 vs 2: 1.60
mice, brain, male
  AUClast Ratio, group 2 vs 1: 2.96
  Cmax Ratio, group 2 vs 1: 3.00
  AUClast Ratio, group 3 vs 2: 1.54
  Cmax Ratio, group 3 vs 2: 1.44
mice, plasma, female
  AUClast Ratio, group 2 vs 1: 2.41
  Cmax Ratio, group 2 vs 1: 3.47
  AUClast Ratio, group 3 vs 2: 1.23
  Cmax Ratio, group 3 vs 2: 0.726
mice, plasma, male
  AUClast Ratio, group 2 vs 1: 2.32
  Cmax Ratio, group 2 vs 1: 3.50
  AUClast Ratio, group 3 vs 2: 1.04
  Cmax Ratio, group 3 vs 2: 0.552
mice, all dose groups
  distribution: distributed to brain
  duration of brain exposure: 24 h
[12]
  gender-related differences in exposure in brain: No gender-related differences
  gender-related differences in exposure in plasma: No gender-related differences
mice, brain
  AUClast ratios females/males: 1.10-1.34
  Cmax ratios females/males: 1.11-1.24
mice, brain, both sexes
  AUClast ratios 7-day repeat vs single-dose 80 mg/kg: 1.54-1.87
  AUClast ratios 80 vs 40 mg/kg single dose: 2.81-2.96
  Cmax ratios 7-day repeat vs single-dose 80 mg/kg: 1.44-1.60
mice, plasma
  AUClast ratios females/males: 0.989-1.22
  Cmax ratios females/males: 0.967-1.27
mice, plasma, both sexes
  AUClast ratios 7-day repeat vs single-dose 80 mg/kg: 1.04-1.23
  AUClast ratios 80 vs 40 mg/kg single dose: 2.32-2.41
[13]
  AUClast Ratio Female/Male: 1.34
  Cmax Ratio Female/Male: 1.24
mice, repeat PO 80 mg/kg, brain, female
  C24hr/Cmax Ratio (%): 18.9%
mice, repeat PO 80 mg/kg, brain, male
  C24hr/Cmax Ratio (%): 14.4%
[14]
  AUClast Ratio Female/Male: 1.22
  Cmax Ratio Female/Male: 1.27
mice, repeat PO 80 mg/kg, plasma, female
  C24hr/Cmax Ratio (%): 3.94%
mice, repeat PO 80 mg/kg, plasma, male
  C24hr/Cmax Ratio (%): 2.68%
[15]
  AUClast Ratio Female/Male: 1.16
  Cmax Ratio Female/Male: 1.15
mice, single PO 40 mg/kg, brain, both sexes
  mean concentration at 24 hr post-dose as % of Cmax: 10.4-11.1%
mice, single PO 40 mg/kg, brain, female
  C24hr/Cmax Ratio (%): 11.1%
mice, single PO 40 mg/kg, brain, male
  C24hr/Cmax Ratio (%): 10.4%
[16]
  AUClast Ratio Female/Male: 0.989
  Cmax Ratio Female/Male: 0.976
mice, single PO 40 mg/kg, plasma, both sexes
  mean concentration at 24 hr post-dose as % of Cmax: 0.748-1.10%
mice, single PO 40 mg/kg, plasma, female
  C24hr/Cmax Ratio (%): 1.10%
mice, single PO 40 mg/kg, plasma, male
  C24hr/Cmax Ratio (%): 0.748%
[17]
  AUClast Ratio Female/Male: 1.10
  Cmax Ratio Female/Male: 1.11
mice, single PO 80 mg/kg, brain, both sexes
  mean concentration at 24 hr post-dose as % of Cmax: 9.71-11.2%
mice, single PO 80 mg/kg, brain, female
  C24hr/Cmax Ratio (%): 9.71%
mice, single PO 80 mg/kg, brain, male
  C24hr/Cmax Ratio (%): 11.2%
[18]
  AUClast Ratio Female/Male: 1.03
  Cmax Ratio Female/Male: 0.967
mice, single PO 80 mg/kg, plasma, both sexes
  mean concentration at 24 hr post-dose as % of Cmax: 0.671-0.757%
mice, single PO 80 mg/kg, plasma, female
  C24hr/Cmax Ratio (%): 0.671%
mice, single PO 80 mg/kg, plasma, male
  C24hr/Cmax Ratio (%): 0.757%
mice, single PO 40, 80 mg/kg and 7-day repeat PO 80 mg/kg
  in-life observations: no abnormalities were observed
mice, single PO 40 and 80 mg/kg
  dose proportionality of AUClast and Cmax in plasma and brain: proportional increase of exposure
[19]
  Cmax at 7 day: 2840 ng/mL
  Tmax at 7 day: 1 h
[20]
  Cmax at 7 day: 2230 ng/mL
  Tmax at 7 day: 1 h
[21]
  Cmax: 1120 ng/mL
  MRT last: 5.3 h
  Tmax: 0.5 h
[22]
  Cmax: 1150 ng/mL
  MRT last: 5.22 h
  Tmax: 0.5 h
[23]
  Cmax: 3910 ng/mL
  MRT last: 4.86 h
  Tmax: 0.5 h
[24]
  Cmax: 4040 ng/mL
  MRT last: 5.46 h
  Tmax: 0.5 h
